Results as given in the supplement of paper PMC12819154, “High-throughput peptide-centric local stability assay extends protein–ligand identification to membrane proteins, tissues and bacteria” (Nature Structural & Molecular Biology, 2025).

What was measured:
Assay in all cases: pEC50 of peptide local stability change
[1] = biological target: UniProt P15034; details: peptide sequence: RAGEITAMAHTR; direction: stabilized; replicate design: treated separately
Procedure, shortened: (§1)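 In four 50 µl replicates, desalted MgCl2-supplemented E. coli K-12 BW25113 lysate (1.2 mg ml^−1) received seven doses of ATP (10 µM–10 mM) or water for 30 min at 25 °C, followed by a 4 min trypsin digest at 22 °C and DIA LC–MS/MS. For each replicate, treated/control peptide ratios were fitted to a four-parameter log-logistic model. Only fits with R^2 over 0.9 in at least three replicates and a coefficient of variation of at most 0.25 were kept. The value given is the replicate mean pEC50.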

[2] = biological target: UniProt P08192; details: peptide sequence: ASGLEVSENAIR; direction: stabilized; replicate design: treated separately
Chain of UniProt P08192 (P08192 whole entry): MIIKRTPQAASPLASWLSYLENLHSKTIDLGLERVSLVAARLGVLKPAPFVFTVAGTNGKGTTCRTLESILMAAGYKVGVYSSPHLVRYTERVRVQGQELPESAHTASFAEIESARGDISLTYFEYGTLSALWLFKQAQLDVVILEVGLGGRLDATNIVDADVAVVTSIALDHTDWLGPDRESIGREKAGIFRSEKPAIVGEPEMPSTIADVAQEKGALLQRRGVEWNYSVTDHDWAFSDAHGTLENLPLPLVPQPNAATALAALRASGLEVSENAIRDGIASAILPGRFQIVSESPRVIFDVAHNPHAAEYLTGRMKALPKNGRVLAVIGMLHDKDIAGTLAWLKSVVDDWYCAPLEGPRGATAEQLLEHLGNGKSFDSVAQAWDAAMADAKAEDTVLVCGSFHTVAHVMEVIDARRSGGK
Procedure, shortened: as §1

[3] = biological target: UniProt P24182; details: peptide sequence: LMGDKVSAIAAMKK; direction: stabilized; replicate design: treated separately
Procedure, shortened: as §1

[4] = biological target: UniProt P75957; details: peptide sequence: KKPAEINSR; direction: stabilized; replicate design: treated separately
Chain of UniProt P75957 (P75957 whole entry): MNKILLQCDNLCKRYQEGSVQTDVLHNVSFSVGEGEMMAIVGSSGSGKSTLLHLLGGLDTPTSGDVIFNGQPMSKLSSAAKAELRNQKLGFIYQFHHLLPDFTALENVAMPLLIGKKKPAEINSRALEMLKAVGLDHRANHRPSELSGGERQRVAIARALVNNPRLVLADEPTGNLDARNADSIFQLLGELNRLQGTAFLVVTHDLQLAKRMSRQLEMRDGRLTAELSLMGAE
Procedure, shortened: as §1

[5] = biological target: UniProt P23874; details: peptide sequence: ISVAGAQEK; direction: stabilized; replicate design: treated separately
Chain of UniProt P23874 (P23874 whole entry): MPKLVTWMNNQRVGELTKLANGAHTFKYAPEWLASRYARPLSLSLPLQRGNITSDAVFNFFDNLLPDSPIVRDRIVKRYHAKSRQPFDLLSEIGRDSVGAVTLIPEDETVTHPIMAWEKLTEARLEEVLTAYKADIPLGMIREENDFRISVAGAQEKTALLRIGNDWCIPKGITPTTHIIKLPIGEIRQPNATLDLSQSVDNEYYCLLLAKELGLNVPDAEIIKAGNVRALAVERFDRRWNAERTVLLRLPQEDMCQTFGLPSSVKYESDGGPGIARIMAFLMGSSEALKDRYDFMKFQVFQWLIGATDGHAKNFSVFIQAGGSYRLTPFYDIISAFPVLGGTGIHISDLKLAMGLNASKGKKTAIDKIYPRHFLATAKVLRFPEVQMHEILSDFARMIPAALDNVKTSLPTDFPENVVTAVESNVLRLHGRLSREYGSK
Procedure, shortened: as §1

[6] = biological target: UniProt P14375; details: peptide sequence: ELENAVER; direction: stabilized; replicate design: treated separately
Chain of UniProt P14375 (P14375 whole entry): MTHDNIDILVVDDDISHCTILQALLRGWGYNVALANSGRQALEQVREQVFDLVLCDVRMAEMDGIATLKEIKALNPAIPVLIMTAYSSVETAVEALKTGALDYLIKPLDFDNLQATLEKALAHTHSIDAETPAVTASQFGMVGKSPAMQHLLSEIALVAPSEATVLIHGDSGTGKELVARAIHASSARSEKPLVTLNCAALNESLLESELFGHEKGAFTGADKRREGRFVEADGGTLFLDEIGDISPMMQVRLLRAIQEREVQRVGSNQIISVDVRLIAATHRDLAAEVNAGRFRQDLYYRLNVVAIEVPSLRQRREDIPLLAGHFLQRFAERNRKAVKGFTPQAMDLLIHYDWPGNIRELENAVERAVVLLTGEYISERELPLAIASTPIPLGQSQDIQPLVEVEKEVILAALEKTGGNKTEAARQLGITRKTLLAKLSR
Procedure, shortened: as §1

[7] = biological target: UniProt P33919; details: peptide sequence: VLVLAHVK; direction: stabilized; replicate design: treated separately
Chain of UniProt P33919 (P33919 whole entry): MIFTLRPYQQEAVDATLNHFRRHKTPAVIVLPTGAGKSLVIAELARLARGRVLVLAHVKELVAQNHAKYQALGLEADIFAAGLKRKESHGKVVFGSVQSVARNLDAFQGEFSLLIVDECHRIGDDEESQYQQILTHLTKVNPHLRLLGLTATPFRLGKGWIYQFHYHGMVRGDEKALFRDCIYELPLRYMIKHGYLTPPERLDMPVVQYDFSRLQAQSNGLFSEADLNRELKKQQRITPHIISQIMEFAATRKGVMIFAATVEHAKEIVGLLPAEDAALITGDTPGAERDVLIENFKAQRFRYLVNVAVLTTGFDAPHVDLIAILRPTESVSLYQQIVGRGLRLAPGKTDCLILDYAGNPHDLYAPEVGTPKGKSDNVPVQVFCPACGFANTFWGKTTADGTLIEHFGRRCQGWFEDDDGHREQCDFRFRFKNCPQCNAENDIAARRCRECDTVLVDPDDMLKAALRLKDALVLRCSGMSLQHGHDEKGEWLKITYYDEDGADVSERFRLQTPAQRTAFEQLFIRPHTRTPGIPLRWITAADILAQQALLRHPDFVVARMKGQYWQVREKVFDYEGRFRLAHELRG
Procedure, shortened: as §1

[8] = biological target: UniProt P08200; details: peptide sequence: VAIKGPLTTPVGGGIR; direction: stabilized; replicate design: treated separately
Chain of UniProt P08200 (P08200 whole entry): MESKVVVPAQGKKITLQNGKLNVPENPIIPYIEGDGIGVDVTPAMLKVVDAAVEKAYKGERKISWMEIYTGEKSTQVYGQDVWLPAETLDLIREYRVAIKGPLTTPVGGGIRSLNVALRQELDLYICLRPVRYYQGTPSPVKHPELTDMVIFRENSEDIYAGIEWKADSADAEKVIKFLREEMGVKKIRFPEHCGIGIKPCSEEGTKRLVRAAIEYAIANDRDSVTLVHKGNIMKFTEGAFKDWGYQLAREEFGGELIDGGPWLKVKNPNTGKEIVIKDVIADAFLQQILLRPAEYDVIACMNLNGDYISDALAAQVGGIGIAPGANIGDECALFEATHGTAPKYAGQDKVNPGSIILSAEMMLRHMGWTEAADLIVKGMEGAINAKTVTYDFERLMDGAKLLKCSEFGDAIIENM
Procedure, shortened: as §1

[9] = biological target: UniProt P05707; details: peptide sequence: VGSKHNSGYSAAK; direction: stabilized; replicate design: treated separately
Chain of UniProt P05707 (P05707 whole entry): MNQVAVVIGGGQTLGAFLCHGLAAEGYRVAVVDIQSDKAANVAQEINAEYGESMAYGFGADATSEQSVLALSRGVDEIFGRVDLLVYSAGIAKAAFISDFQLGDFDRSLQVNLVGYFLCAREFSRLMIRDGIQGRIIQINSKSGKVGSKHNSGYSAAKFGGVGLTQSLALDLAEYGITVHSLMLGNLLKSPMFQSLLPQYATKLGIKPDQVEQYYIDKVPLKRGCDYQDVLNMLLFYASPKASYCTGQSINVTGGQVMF
Procedure, shortened: as §1

[10] = biological target: UniProt P76027; details: peptide sequence: EILNLPEHELNKLR; direction: stabilized; replicate design: treated separately
Chain of UniProt P76027 (P76027 whole entry): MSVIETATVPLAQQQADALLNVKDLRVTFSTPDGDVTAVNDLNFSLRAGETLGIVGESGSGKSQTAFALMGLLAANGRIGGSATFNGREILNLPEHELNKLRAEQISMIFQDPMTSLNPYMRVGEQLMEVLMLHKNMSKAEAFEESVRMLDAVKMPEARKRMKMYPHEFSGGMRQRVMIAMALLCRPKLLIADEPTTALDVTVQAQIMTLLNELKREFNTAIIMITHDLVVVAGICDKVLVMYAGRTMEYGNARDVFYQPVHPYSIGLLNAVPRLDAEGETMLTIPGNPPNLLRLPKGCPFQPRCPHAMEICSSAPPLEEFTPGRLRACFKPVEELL
Procedure, shortened: as §1

[11] = biological target: UniProt P43672; details: peptide sequence: LMLGQLQADSGR; direction: stabilized; replicate design: treated separately
Chain of UniProt P43672 (P43672 whole entry): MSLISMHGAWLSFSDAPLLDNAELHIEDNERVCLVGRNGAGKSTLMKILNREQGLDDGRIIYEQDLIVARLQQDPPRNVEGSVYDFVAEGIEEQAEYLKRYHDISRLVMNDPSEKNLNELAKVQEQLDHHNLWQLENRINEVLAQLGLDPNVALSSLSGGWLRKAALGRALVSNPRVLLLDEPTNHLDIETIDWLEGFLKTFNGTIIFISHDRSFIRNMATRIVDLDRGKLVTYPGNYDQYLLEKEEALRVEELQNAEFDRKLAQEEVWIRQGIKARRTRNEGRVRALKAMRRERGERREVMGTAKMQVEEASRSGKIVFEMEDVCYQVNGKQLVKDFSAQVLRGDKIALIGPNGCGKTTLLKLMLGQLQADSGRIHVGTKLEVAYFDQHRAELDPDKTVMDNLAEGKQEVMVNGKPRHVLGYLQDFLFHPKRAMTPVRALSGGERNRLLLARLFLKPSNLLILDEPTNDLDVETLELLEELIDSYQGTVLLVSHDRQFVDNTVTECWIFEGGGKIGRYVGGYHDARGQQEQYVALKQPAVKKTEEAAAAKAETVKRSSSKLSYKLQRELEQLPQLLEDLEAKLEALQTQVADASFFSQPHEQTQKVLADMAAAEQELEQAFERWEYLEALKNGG
Procedure, shortened: as §1

Chain of UniProt P15034 (P15034 whole entry): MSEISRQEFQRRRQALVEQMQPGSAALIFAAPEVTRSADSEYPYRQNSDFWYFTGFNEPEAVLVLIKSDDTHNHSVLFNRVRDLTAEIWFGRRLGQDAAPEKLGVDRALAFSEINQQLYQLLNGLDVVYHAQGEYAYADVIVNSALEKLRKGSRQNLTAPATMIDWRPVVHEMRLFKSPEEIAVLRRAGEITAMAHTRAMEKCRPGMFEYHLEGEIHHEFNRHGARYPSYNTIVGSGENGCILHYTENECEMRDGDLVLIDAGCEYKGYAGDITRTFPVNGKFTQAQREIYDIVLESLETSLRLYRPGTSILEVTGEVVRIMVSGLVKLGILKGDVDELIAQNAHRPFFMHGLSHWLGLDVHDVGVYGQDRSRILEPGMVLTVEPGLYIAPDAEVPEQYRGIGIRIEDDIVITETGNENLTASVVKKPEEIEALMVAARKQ

Nc1ncnc2c1ncn2[C@@H]1O[C@H](COP(=O)(O)OP(=O)(O)OP(=O)(O)O)[C@@H](O)[C@H]1O [adenosine 5'-triphosphate]
Details	pEC50 of peptide local stability change
[1]	3.83
[2]	2.7
[3]	3.89
[4]	3.56
[5]	3.78
[6]	3.65
[7]	4.16
[8]	2.33
[9]	3.86
[10]	2.71
[11]	3.81
